Test results published in patent publication US8629132B2, “Kinase inhibitors” (Genosco, priority 2009, dated 2014).

How the values were obtained:
[1] = biological target: T1, PYK2 (Homo sapiens, UniProt Q14289); test: Kinase inhibition assay: PYK2; format: biochemical; settings: at 1 μM concentration
T1 construct: Purified full-length human SYK, ZAP70, PIM1, PYK2; purchased Carna Biosciences
Method: (§1) Compounds of the present invention were tested for their capacity to inhibit a kinase panel which includes, but are not limited to, spleen tyrosine kinase (SYK), zeta-chain-associated protein kinase 70 (ZAP70), PTK2B protein tyrosine kinase 2 (PYK2), focal adhesion kinase (FAK), provirus integration of maloney kinase 1 (PIM1), rearranged during transfection kinase (RET), Fms-like tyrosine kinase 3 (FLT3), Janus kinase 2 (JAK2), and leucine-rich repeat kinase 2 (LRRK2).
(§2) Inhibition of SYK, ZAP70, PYK2, FAK, PIM1, RET, FLT3, JAK2 and LRRK2 Kinase Activity
(§3) Compounds of the invention were initially diluted to 10 mM in 100% DMSO (CALBIOCHEM™) for storage and made into kinase buffer solution to create a compound concentration ranging from 1 uM and 10 uM. Serial dilutions of compounds of the invention were dispensed into a 96-well plate (GREINER BIOSCIENCES™) at 6 μL each. Purified full-length human SYK, ZAP70, PIM1, PYK2 and truncated human FAK, RET, FLT3, JAK2, and LRRK2 (CARNA BIOSCIENCES™) were diluted in kinase buffer and added to the compound solutions and pre-incubated for 30 minutes at room temperature (1 hour for PYK2). […] The reaction mixture was incubated for 1 hour (2 hours for PYK2). Following the incubation, the stop solution made with EDTA, water, and Lance detection buffer ([…]™) was added (12μL each) to stop phosphorylation. […] The IC50 value of test compound was calculated at Gradpad Prism 5 unless specified otherwise.

[2] = biological target: T2, PIM1 (Homo sapiens, UniProt P11309); test: Kinase inhibition assay: PIM1; format: biochemical; settings: at 1 μM concentration
T2 construct: Purified full-length human SYK, ZAP70, PIM1, PYK2; purchased Carna Biosciences
Method: as §1, §2
Compounds of the invention were initially diluted to 10 mM in 100% DMSO (CALBIOCHEM™) for storage and made into kinase buffer solution to create a compound concentration ranging from 1 uM and 10 uM. Serial dilutions of compounds of the invention were dispensed into a 96-well plate (GREINER BIOSCIENCES™) at 6 μL each. Purified full-length human SYK, ZAP70, PIM1, PYK2 and truncated human FAK, RET, FLT3, JAK2, and LRRK2 (CARNA BIOSCIENCES™) were diluted in kinase buffer and added to the compound solutions and pre-incubated for 30 minutes at room temperature (1 hour for PYK2). […] The reaction mixture was incubated for 1 hour (2 hours for PYK2). Following the incubation, the stop solution made with EDTA, water, and Lance detection buffer ([…]™) was added (12μL each) to stop phosphorylation. […] Substrate phosphorylation was a function of the 665 nm emission measured following the addition of the detection solution and 50 minutes of incubation. The IC50 value of test compound was calculated at Gradpad Prism 5 unless specified otherwise.

[3] = biological target: T3, SYK (Homo sapiens, UniProt P43405); test: Kinase inhibition assay: SYK; format: biochemical; settings: at 1 μM concentration
T3 construct: Purified full-length human SYK, ZAP70, PIM1, PYK2; purchased Carna Biosciences
Method: as §1, §2, §3

[4] = biological target: T4, FAK (Homo sapiens, UniProt Q05397); test: Kinase inhibition assay: FAK; format: biochemical; settings: at 1 μM concentration
T4 construct: truncated human FAK, RET, FLT3, JAK2, and LRRK2; purchased Carna Biosciences
Method: as §1, §2, §3

[5] = biological target: T5, ZAP70 (Homo sapiens, UniProt P43403); test: Kinase inhibition assay: ZAP70; format: biochemical; settings: at 1 μM concentration
T5 construct: Purified full-length human SYK, ZAP70, PIM1, PYK2; purchased Carna Biosciences
T5 sequence (P43403 1-619): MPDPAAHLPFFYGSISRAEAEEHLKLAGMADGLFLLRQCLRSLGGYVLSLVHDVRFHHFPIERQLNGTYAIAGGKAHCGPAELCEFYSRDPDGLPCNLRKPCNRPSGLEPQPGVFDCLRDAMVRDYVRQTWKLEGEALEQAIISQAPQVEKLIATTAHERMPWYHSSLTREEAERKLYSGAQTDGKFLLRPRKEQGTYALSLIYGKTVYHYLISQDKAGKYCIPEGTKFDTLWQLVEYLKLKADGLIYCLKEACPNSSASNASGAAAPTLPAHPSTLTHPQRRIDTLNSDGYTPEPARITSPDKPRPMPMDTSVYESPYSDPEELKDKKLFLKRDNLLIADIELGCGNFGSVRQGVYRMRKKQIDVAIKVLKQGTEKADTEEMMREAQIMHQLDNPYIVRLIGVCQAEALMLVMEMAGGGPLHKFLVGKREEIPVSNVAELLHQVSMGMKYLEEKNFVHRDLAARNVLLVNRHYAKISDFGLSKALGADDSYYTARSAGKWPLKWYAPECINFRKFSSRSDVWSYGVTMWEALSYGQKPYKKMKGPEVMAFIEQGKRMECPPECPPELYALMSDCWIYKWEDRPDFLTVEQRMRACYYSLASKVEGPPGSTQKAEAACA
Method: as §1, §2, §3

[6] = biological target: T6, RET (Homo sapiens, UniProt P07949); test: Kinase inhibition assay: RET; format: biochemical
T6 construct: truncated human FAK, RET, FLT3, JAK2, and LRRK2; purchased Carna Biosciences
T6 sequence (P07949 658-1114 limits assumed): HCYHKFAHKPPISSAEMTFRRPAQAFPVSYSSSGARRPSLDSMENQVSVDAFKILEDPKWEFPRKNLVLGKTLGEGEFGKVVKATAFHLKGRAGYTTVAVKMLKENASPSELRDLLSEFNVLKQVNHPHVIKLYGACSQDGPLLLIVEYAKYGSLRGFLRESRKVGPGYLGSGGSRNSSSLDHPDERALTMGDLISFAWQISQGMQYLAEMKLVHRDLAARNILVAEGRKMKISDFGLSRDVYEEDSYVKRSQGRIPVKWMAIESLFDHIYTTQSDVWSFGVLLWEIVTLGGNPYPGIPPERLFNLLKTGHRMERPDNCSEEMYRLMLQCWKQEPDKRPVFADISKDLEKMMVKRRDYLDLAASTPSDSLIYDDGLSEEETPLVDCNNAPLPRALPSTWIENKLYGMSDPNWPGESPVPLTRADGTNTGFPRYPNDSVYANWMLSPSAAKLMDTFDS
Method: as §1, §2, §3

[7] = biological target: T7, LRRK2 (Homo sapiens, UniProt Q5S007); test: Kinase inhibition assay: LRRK2; format: biochemical
T7 construct: truncated human FAK, RET, FLT3, JAK2, and LRRK2; purchased Carna Biosciences
Method: as §1, §2, §3

[8] = biological target: JAK2 (Homo sapiens, UniProt O60674); test: Kinase inhibition assay: JAK2; format: biochemical; design: truncated human FAK, RET, FLT3, JAK2, and LRRK2; purchased Carna Biosciences
Method: as §1, §2, §3

[9] = system: MTC-TT; test: Cell viability assay: RET inhibition; format: cell-based, human; settings: for IC50: Homo sapiens, 48 h, two days after drug treatment; for inhibition level compared with Vandetinib and Sunitinib: RET induced cancer cell line (MTC-TT)
Method: To address RET dependent cell viability, the medullary thyroid carcinoma cell line, MTC-TT representing MEN2A was utilized to test compounds of the present invention. MTC-TT were cultured at RPMI containing 15 bovine calf serum (Hyclon™ of Thermo™) and supplemented with 2 mM L-Glutamine The cells were grown at a density of 5×10^4 cells/100 μL/well in duplicate in 96-well plates for one day and treated with different concentrations of test compound. Cell viability for MTC-TT two days after drug treatment was measured by Cell Titer 96 Aqueous One Solution Reagent (Promega™) according to the manufacture instructions.

[10] = biological target: T8, FLT3 (Homo sapiens, UniProt P36888); test: Kinase inhibition assay: FLT3; format: biochemical
T8 construct: truncated human FAK, RET, FLT3, JAK2, and LRRK2; purchased Carna Biosciences
T8 sequence (P36888 564-993 limits assumed): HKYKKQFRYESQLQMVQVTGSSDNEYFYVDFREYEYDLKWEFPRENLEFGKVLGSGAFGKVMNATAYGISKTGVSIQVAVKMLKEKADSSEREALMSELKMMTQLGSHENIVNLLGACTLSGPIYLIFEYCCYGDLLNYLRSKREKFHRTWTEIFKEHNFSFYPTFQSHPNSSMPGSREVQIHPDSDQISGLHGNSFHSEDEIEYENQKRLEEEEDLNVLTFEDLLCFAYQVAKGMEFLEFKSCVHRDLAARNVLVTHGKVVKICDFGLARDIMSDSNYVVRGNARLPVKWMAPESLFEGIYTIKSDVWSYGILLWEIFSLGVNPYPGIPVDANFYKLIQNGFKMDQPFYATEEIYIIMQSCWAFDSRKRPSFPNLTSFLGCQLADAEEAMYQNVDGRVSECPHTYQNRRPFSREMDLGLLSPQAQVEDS
Method: as §1, §2, §3

T1 sequence (Q14289 whole entry): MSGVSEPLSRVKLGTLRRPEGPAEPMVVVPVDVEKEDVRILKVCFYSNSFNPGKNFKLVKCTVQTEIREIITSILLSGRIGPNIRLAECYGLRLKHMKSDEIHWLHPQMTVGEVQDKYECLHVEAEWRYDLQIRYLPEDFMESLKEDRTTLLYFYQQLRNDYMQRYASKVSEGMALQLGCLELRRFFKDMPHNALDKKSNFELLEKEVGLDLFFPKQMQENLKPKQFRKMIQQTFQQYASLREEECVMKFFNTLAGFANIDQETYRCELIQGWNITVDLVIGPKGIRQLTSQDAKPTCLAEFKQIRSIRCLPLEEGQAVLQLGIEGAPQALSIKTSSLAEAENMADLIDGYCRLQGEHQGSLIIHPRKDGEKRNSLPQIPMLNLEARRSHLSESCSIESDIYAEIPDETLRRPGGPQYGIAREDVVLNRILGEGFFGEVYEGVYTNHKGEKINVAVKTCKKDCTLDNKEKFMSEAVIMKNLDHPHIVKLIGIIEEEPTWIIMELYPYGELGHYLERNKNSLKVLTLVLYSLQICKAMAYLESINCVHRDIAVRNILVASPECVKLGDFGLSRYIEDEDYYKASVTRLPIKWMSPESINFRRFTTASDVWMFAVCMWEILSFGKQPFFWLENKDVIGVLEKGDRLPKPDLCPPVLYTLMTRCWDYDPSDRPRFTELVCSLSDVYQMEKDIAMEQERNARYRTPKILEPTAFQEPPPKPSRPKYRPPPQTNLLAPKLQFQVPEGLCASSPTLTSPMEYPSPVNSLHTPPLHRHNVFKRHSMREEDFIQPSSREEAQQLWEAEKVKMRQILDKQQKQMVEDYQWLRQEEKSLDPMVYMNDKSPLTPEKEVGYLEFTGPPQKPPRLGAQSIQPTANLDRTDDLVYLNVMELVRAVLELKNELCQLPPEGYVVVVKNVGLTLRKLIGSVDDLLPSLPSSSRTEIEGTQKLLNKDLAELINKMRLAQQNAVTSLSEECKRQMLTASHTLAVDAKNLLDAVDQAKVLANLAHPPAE
T4 sequence (Q05397 376-1052 limits assumed): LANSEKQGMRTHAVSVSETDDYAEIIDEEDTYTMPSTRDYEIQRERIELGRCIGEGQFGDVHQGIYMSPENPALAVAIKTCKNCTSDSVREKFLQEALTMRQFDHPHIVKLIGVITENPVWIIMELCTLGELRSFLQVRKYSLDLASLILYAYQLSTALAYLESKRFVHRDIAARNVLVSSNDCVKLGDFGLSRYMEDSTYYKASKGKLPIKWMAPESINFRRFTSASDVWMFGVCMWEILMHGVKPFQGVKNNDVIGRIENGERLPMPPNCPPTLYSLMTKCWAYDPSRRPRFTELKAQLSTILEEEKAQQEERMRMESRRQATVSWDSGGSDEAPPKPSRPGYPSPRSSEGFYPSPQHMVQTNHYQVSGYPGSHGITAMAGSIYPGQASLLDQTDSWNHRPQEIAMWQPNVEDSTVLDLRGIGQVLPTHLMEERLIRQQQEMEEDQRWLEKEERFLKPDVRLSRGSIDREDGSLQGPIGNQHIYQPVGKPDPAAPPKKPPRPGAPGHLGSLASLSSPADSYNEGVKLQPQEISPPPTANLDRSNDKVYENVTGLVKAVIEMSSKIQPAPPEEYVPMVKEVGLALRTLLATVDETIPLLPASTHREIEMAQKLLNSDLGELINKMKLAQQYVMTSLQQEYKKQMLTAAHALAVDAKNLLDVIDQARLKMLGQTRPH
Chain of JAK2 (O60674 826-1132 limits assumed): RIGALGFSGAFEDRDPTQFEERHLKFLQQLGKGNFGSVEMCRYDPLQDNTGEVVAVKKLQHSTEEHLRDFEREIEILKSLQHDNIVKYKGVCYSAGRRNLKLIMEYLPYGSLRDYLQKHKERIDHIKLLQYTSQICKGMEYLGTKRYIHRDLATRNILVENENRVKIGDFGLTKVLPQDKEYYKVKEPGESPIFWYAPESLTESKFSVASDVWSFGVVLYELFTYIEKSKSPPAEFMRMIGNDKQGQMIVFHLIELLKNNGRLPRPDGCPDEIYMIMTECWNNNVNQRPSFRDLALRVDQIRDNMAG
T2 sequence (P11309 whole entry): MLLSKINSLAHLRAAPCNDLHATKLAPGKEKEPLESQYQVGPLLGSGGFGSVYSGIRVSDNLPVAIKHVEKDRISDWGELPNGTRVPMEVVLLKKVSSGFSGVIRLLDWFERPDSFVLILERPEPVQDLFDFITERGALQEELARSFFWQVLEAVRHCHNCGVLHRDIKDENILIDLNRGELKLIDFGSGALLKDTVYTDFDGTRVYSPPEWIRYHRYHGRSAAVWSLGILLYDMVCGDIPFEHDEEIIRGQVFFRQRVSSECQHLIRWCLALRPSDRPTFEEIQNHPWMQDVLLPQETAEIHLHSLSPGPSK
T7 sequence (Q5S007 970-2527 limits assumed): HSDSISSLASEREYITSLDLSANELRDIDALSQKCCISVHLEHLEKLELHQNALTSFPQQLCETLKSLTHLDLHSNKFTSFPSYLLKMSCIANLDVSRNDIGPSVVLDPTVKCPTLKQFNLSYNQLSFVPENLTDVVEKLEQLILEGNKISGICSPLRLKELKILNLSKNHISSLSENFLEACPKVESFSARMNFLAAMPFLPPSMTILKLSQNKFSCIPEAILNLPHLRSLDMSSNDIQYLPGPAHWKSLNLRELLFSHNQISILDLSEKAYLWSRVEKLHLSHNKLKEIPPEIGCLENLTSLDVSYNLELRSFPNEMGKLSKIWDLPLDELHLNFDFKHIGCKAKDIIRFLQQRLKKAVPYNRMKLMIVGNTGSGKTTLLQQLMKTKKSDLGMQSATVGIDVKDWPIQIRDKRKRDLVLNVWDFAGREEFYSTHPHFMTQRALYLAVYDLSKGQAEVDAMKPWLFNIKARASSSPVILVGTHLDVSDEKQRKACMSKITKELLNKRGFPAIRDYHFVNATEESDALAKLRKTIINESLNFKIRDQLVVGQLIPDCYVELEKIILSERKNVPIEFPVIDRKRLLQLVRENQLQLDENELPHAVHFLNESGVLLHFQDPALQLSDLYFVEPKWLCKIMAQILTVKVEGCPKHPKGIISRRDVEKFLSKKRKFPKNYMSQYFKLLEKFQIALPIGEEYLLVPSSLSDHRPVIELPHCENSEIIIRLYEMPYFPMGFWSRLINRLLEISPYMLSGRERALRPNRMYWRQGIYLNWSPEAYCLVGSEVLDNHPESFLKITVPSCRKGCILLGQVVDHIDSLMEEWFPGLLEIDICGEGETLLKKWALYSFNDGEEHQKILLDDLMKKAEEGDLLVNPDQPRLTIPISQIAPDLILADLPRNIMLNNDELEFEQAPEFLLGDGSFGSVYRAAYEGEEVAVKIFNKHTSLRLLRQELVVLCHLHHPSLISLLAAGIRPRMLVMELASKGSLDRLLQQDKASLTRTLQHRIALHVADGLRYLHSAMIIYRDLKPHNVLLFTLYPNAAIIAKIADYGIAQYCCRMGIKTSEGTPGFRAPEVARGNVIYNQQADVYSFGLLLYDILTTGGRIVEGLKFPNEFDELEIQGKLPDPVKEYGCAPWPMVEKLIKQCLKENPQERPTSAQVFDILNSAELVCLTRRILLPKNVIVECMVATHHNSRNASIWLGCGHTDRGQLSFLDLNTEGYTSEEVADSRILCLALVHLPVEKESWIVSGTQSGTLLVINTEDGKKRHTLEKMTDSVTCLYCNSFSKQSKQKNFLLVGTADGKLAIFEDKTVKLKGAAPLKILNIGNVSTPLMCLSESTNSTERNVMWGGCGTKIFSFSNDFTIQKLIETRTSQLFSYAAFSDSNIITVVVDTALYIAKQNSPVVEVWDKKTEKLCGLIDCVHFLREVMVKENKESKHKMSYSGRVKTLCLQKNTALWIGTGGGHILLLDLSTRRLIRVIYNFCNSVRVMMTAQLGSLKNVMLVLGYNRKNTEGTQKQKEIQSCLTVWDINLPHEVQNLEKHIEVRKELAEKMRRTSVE

Row | SMILES | inhibition at 1 µM [1] [%] | inhibition at 1 µM [2] [%] | inhibition at 1 µM [3] [%] | inhibition at 1 µM [4] [%] | inhibition at 1 µM [5] [%] | IC50 [6] [nM] | IC50 [7] [nM] | IC50 [8] [nM] | IC50 [9] [nM] | inhibition level compared with Vandetinib and Sunitinib [9] | IC50 [10] [nM]
1 | Cc1cc(C)cc(Nc2ncc(F)c(-n3cc(C)c(CO)c3)n2)c1 [Compound 14, (1-(2-(3,5-dimethyl-phenylamino)-5-fluoro-pyrimidin-4-yl)-4-methyl-1H-pyrrol-3-yl)methanol] | 30.6 | 21.9 | 82.7 | 36.9 | 41.3 | – | – | – | – | – | –
2 | Cc1cc(C)cc(Nc2ncc(F)c(-n3cc(C(=O)N4CC[C@@H](O)C4)c(C)n3)n2)c1 [Compound 38, (R)-(1-(2-(3,5-dimethylphenylamino)-5-fluoropyrimidin-4-yl)-3-methyl-1H-pyrazol-4-yl)(3-hydroxypyrrolidin-1-yl)methanone] | 18 | 3.7 | 41.8 | 17.7 | 19.3 | – | – | – | – | – | –
3 | COc1cc(Nc2ncc(C)c(-n3cc(C)c(CN4CCN(CCO)CC4)c3)n2)cc(OC)c1OC [Compound 40, 2-(4-((4-methyl-1-(5-methyl-2-(3,4,5-trimethoxyphenylamino)pyrimidin-4-yl)-1H-pyrrol-3-yl)methyl)piperazin-1-yl)ethanol] | – | – | – | – | – | 10.2 | 275 | 3.7 | 78.4 | greater than those exhibited by Vandetinib and Sunitinib | 0.17
4 | Cc1cn(-c2nc(Nc3cc(C)c(OCCO)c(C)c3)ncc2C)cc1CN(C)C [Compound 121, 2-(4-(4-(3-((dimethylamino)methyl)-4-methyl-1H-pyrrol-1-yl)-5-methylpyrimidin-2-ylamino)-2,6-dimethylphenoxy)ethanol] | – | – | – | – | – | 2.3 | – | 2.5 | 34.6 | greater than those exhibited by Vandetinib and Sunitinib | 1.7
